This passage reports IC50 results from patent US20240279237A1, “FUSED BICYCLIC HETEROARYL COMPOUNDS USEFUL AS NLRP3 INHIBITORS” (Hoffmann-La Roche Inc., priority 2021, published 2024).

This experiment concerns the target T1, NLRP3 (Homo sapiens, UniProt Q96P20).
T1 construct: Seed THP-1 cells (25,000 cells/well) containing 1.0 μg/ml LPS in 40 μl of RPMI medium; host or cells: THP-1 cells
Put plainly: THP-1 Cells Pyroptosis Assay. The experiment is classed as cell-based. The settings on record: THP-1 cells with 1.0 μg/ml LPS; compound 3 hours; nigericin 5 μM 1 hr; resazurin readout. How it is done:
The cells were routinely passaged and grown to confluency (˜10^6 cells/ml). On the day of the experiment, THP-1 cells were harvested and resuspended into RPMI medium (without FBS). The cells were then counted and viability (>90%) checked by Trypan blue (Sigma #T8154). […] To this diluted cell solution was added LPS (Sigma #L4524) to give a 1 μg/ml Final Assay Concentration (FAC). 40 μl of the final preparation was aliquoted into each well of a 96-well plate. The plate thus prepared was used for compound screening.
The following method step-by-step assay was followed for compound screening. • 1. […] Incubate for 3 hours at 37° C., 5% CO2 • 4. Add 5 μl nigericin (Sigma #N7143) (FAC 5 μM) to all wells • 5. Incubate for 1 hr at 37° C., 5% CO2 • 6. At the end of the incubation period, spin plates at 300×g for 3 mins and remove supernatant • 7. Then add 50 μl of resazurin (Sigma #R7017) (FAC 100 μM resazurin in RPMI medium without FBS) and incubate plates for a further 1-2 hours at 37° C. and 5% CO2 • 8.
A general note: The colour change of resazurin is a common sign of viable cells or microbes.

Structures can show the parent of a compound that is named as a salt.

T1 sequence (Q96P20 whole entry): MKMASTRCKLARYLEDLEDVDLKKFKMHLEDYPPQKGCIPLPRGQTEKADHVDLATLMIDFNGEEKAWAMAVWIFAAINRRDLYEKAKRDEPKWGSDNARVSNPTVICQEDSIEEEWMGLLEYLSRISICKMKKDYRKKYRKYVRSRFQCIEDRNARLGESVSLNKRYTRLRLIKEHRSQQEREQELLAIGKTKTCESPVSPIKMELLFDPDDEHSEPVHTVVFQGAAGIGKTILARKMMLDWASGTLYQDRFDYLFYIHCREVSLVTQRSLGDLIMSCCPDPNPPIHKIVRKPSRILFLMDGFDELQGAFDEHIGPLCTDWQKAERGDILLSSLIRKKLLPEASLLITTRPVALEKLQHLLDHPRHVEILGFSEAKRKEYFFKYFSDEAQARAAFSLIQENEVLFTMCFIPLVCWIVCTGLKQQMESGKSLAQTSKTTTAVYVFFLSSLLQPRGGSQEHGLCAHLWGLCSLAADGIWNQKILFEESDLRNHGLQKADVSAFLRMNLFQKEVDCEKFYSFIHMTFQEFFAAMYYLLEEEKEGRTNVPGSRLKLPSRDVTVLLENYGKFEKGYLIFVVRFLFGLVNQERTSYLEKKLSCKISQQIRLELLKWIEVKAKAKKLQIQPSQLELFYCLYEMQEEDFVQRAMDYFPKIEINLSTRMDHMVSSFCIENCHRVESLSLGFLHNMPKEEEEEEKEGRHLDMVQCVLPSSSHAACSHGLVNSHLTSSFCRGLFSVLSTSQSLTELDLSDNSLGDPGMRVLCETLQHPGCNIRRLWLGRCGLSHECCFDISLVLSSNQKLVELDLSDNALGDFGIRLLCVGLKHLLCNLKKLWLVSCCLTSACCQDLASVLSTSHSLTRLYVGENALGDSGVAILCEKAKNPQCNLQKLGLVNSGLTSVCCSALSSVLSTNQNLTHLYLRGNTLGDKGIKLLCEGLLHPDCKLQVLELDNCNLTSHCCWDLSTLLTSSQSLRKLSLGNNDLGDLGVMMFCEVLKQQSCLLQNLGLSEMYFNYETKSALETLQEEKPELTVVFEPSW

On to `Cc1cc(C#N)cc(O)c1-c1ccc2oc(NC3CCCN4C[C@@H](O)CC34)nc2n1` (stereo partly drawn) [Example 115, 3-Hydroxy-5-methyl-4-[2-[[(2S)-2-hydroxy-1,2,3,5,6,7,8,8a-octahydroindolizin-8-yl]amino]oxazolo[4,5-b]pyridin-5-yl]benzonitrile;2,2,2-trifluoroacetic acid], for which the IC50 came out at 48.5 nM. This lies in the double-digit nanomolar range.
Then `Cc1cc(C(F)(F)F)cc(O)c1-c1ccc2oc(N3CC[C@H]4CCN(C)C[C@H]43)nc2n1` (single isomer, unassigned) [Example 37B, 2-[2-[(3aR,7aS)-6-methyl-3,3a,4,5,7,7a-hexahydro-2H-pyrrolo[2,3-c]pyridin-1-yl]oxazolo[4,5-b]pyridin-5-yl]-3-methyl-5-(trifluoromethyl)-phenol or 2-[2-[(3aS,7aR)-6-Methyl-3,3a,4,5,7,7a-hexahydro-2H-pyrrolo[2,3-c]pyridin-1-yl]oxazolo[4,5-b]pyridin-5-yl]-3-methyl-5-(trifluoromethyl)phenol], with 1.1 nM.
In turn, `Cc1cc(C#N)cc(O)c1-c1ccc2oc(NC3CCCN4CCCC34)nc2n1` (racemic) [Example 29, (rac)-4-[2-(1,2,3,5,6,7,8,8a-Octahydroindolizin-8-ylamino)oxazolo[4,5-b]pyridin-5-yl]-3-hydroxy-5-methyl-benzonitrile] displayed a half-maximal inhibitory concentration (IC50) of 5.1 nM.
Then `CCN1CCC[C@@H](Nc2nc3nc(-c4c(C)cc(C(F)(F)F)cc4O)cc(NC)c3o2)C1` [Example 103, 2-[2-[[(3R)-1-Ethyl-3-piperidyl]amino]-7-(methylamino)oxazolo[4,5-b]pyridin-5-yl]-3-methyl-5-(trifluoromethyl)phenol], with 4.6 nM; and `Cc1cc(C(F)(F)F)cc(O)c1-c1ccc2oc(N3CCC(CO)CC3)nc2n1` [Example 78, 2-[2-[4-(Hydroxymethyl)-1-piperidyl]oxazolo[4,5-b]pyridin-5-yl]-3-methyl-5-(trifluoromethyl)phenol], with 58.3 nM; and `Cc1cc(C#N)cc(O)c1-c1ccc2oc(N[C@@H]3C[C@H](O)CN(C)C3)nc2n1` [Example 56, 3-Hydroxy-4-[2-[[(3R,5S)-5-hydroxy-1-methyl-3-piperidyl]amino]oxazolo[4,5-b]pyridin-5-yl]-5-methyl-benzonitrile], with 18.9 nM.
As for `Cc1cc(C(F)(F)F)cc(O)c1-c1ccc2oc(N3CCOCC3CN(C)C)nc2n1` (single isomer, unassigned) [Example 2B, 2-[2-[(3S or 3R)-3-[(Dimethylamino)methyl]morpholin-4-yl]oxazolo[4,5-b]pyridin-5-yl]-3-methyl-5-(trifluoromethyl)phenol], the figure is 16.9 nM; as for `Cc1cc(C(F)(F)F)cc(O)c1-c1ccc2oc(NCC3CCN3C)nc2n1` (stereo not shown) [Example 66, 3-Methyl-2-[2-[(1-methylazetidin-2-yl)methylamino]oxazolo[4,5-b]pyridin-5-yl]-5-(trifluoromethyl)phenol], 149 nM.
Then `CCN1C[C@H](O)C[C@@H](Nc2nc3nc(-c4c(C)cc(Cl)cc4O)ccc3o2)C1` [Example 68, (3R,5R)-5-[[5-(4-Chloro-2-hydroxy-6-methyl-phenyl)oxazolo[4,5-b]pyridin-2-yl]amino]-1-ethyl-piperidin-3-ol;formic acid], with 62.4 nM; and “3-Methyl-2-[2-[[(2S)-1-methylazetidin-2-yl]methylamino]oxazolo[4,5-b]pyridin-5-yl]-5-(trifluoromethyl)phenol or 3-methyl-2-[2-[[(2R)-1-methylazetidin-2-yl]methylamino]oxazolo[4,5-b]pyridin-5-yl]-5-(trifluoromethyl)phenol [Example 66B]”, with 256 nM.
As to `Cc1cc(C(F)(F)F)cc(O)c1-c1ccc2oc(NC3CCCOC3)nc2n1` (racemic) [Example 11, (rac)-3-Methyl-2-[2-(tetrahydropyran-3-ylamino)oxazolo[4,5-b]pyridin-5-yl]-5-(trifluoromethyl)phenol], the IC50 is 217 nM.
As for `CCN1C[C@@H](O)C[C@@H](Nc2nc3nc(-c4c(C)cc(C)cc4O)ccc3o2)C1` [Example 70], the figure is 3.8 nM; as for `Cc1cc(C(F)(F)F)cc(O)c1-c1ccc2[nH]c(C3CCCCN3C)nc2n1` (racemic) [Example 16, (rac)-3-Methyl-2-(2-(1-methylpiperidin-2-yl)-3H-imidazo[4,5-b]pyridin-5-yl)-5-(trifluoromethyl)phenol], 330 nM.
Then `Cc1cc(C(F)(F)F)cc(O)c1-c1ccc2oc(NC[C@H]3C[C@@](C)(O)C3)nc2n1` [Example 57, cis-2-[2-[(3-Hydroxy-3-methyl-cyclobutyl)methylamino]oxazolo[4,5-b]pyridin-5-yl]-3-methyl-5-(trifluoromethyl)phenol], with 50.3 nM.
Then `Cc1cc(C(F)(F)F)cc(O)c1-c1ccc2oc(N[C@@H]3CCCN(C4CC(O)C4)C3)nc2n1` (stereo partly drawn) [Example 61, 2-[2-[[(3R)-1-(3-hydroxycyclobutyl)-3-piperidyl]amino]oxazolo[4,5-b]pyridin-5-yl]-3-methyl-5-(trifluoromethyl)phenol], with 39.4 nM; and `CN1CCCC(Nc2nc3nc(-c4c(O)cc(C(F)(F)F)cc4C(F)F)ccc3o2)C1` [Example 30, 3-(Difluoromethyl)-2-[2-[[(3R)-1-methyl-3-piperidyl]amino]oxazolo[4,5-b]pyridin-5-yl]-5-(trifluoromethyl)phenol;2,2,2-trifluoroacetic acid salt], with 4.5 nM; and `Cc1cc(C#N)cc(O)c1-c1ccc2oc(NC3CCCN4CCCC34)nc2n1` (single isomer, unassigned) [Example 139B, 4-[2-[[(8R,8aR)-1,2,3,5,6,7,8,8a-Octahydroindolizin-8-yl]amino]oxazolo[4,5-b]pyridin-5-yl]-3-hydroxy-5-methyl-benzonitrile or 4-[2-[[(8S,8aS)-1,2,3,5,6,7,8,8a-octahydroindolizin-8-yl]amino]oxazolo[4,5-b]pyridin-5-yl]-3-hydroxy-5-methyl-benzonitrile], with 59.9 nM.
In turn, `CCN1CCC[C@@H](Nc2nc3nc(-c4c(C)cc5c(c4O)CCO5)ccc3o2)C1` [Example 48, 5-[2-[[(3R)-1-Ethyl-3-piperidyl]amino]oxazolo[4,5-b]pyridin-5-yl]-6-methyl-2,3-dihydrobenzofuran-4-ol] came in with an IC50 of 1.2 nM.
`CCN1CCC[C@@H](Nc2nc3nc(-c4c(O)cc(C#N)cc4COC)ccc3o2)C1` [Example 110, 4-[2-[[(3R)-1-Ethyl-3-piperidyl]amino]oxazolo[4,5-b]pyridin-5-yl]-3-hydroxy-5-(methoxymethyl)benzonitrile;2,2,2-trifluoroacetic acid] gave a half-maximal inhibitory concentration (IC50) of 5.8 nM. This IC50 is about 4.8-fold higher than that of the compound before.
Then `Cc1cc(C(F)(F)F)cc(O)c1-c1ccc2oc(N3CCCC(O)C3)nc2n1` (racemic) [Example 3, (rac)-1-[5-[2-Hydroxy-6-methyl-4-(trifluoromethyl)phenyl]oxazolo[4,5-b]pyridin-2-yl]piperidin-3-ol], with 75.4 nM; and `COCc1cc(Cl)cc(O)c1-c1ccc2oc(N[C@@H]3C[C@H](O)CN(C)C3)nc2n1` [Example 100, (3S,5R)-5-[[5-[4-Chloro-2-hydroxy-6-(methoxymethyl)phenyl]oxazolo[4,5-b]pyridin-2-yl]amino]-1-methyl-piperidin-3-ol], with 18.4 nM.
Regarding `Cc1cc(C(F)(F)F)cc(O)c1-c1cc(C(C)(C)O)c2oc(N[C@@H]3CCCN(C)C3)nc2n1` [Example 105, 2-[7-(1-Hydroxy-1-methyl-ethyl)-2-[[(3R)-1-methyl-3-piperidyl]amino]oxazolo[4,5-b]pyridin-5-yl]-3-methyl-5-(trifluoromethyl)phenol;2,2,2-trifluoroacetic acid], the 50% inhibitory concentration (IC50) turned out to be 8.9 nM.
As for `Cc1cc(C#N)cc(O)c1-c1ccc2oc(N[C@@H]3CCC[C@H]3N(C)C)nc2n1` [Example 108, 4-[2-[[(1R,2R)-2-(Dimethylamino)cyclopentyl]amino]oxazolo[4,5-b]pyridin-5-yl]-3-hydroxy-5-methyl-benzonitrile], the figure is 16.8 nM.
Take `CCN1CC2OCCN(c3nc4nc(-c5c(C)cc(C#N)cc5O)ccc4o3)C2C1` [Example 80, 3-Hydroxy-5-methyl-4-[2-[rel-(4aS,7aR)-6-ethyl-2,3,4a,5,7,7a-hexahydropyrrolo[3,4-b][1,4]oxazin-4-yl]oxazolo[4,5-b]pyridin-5-yl]benzonitrile]: the midpoint of inhibition, the IC50, lay at 110 nM.
Then `Cc1cc(Cl)cc(O)c1-c1ccc2oc(N[C@@H]3CCCN(C)C3)nc2n1` [Example 44, 5-Chloro-3-methyl-2-[2-[[(3R)-1-methyl-3-piperidyl]amino]oxazolo[4,5-b]pyridin-5-yl]phenol], with 0.7 nM; and `Cc1ccc(C)c(-c2ccc3oc(N[C@@H]4CCCN(C)C4)nc3n2)c1O` [Example 69, 3,6-Dimethyl-2-[2-[[(3R)-1-methyl-3-piperidyl]amino]oxazolo[4,5-b]pyridin-5-yl]phenol], with 2.7 nM; and `CCN1CCC[C@@H](Nc2nc3nc(-c4c(O)cc(C(F)(F)F)cc4F)ccc3o2)C1` [Example 53, 2-[2-[[(3R)-1-Ethyl-3-piperidyl]amino]oxazolo[4,5-b]pyridin-5-yl]-3-fluoro-5-(trifluoromethyl)phenol], with 2.6 nM.
As for `COC(=O)CCCN1CCC[C@@H](Nc2nc3nc(-c4c(C)cc(Cl)cc4O)ccc3o2)C1` [Example 84, Methyl 4-[(3R)-3-[[5-(4-chloro-2-hydroxy-6-methyl-phenyl)oxazolo[4,5-b]pyridin-2-yl]amino]-1-piperidyl]butanoate], the figure is 0.8 nM.

A word on the IC50: it is the concentration needed to halve the response being measured.
